# Where two headings read alike, the source gives them in different places.
# Tests used:
# Format in all cases: cell-based
# [1] = system: HCT-116 colorectal cancer cell line; assay: CCK-8 proliferation inhibition; conditions: concentration of 30 μM, 72 hours, CCK-8
# Procedure, shortened: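 2000 cells/well, McCoy's 5A + 10% newborn bovine serum; overnight attach, 37° C./5% CO2. Cpd from DMSO stock diluted in medium, 72 h. Readout: CCK-8 (1:10). Ctrl 1‰ DMSO.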
# [2] = system: Escherichia coli (including ESBLs, non-ESBLs); assay: MIC, two-fold agar dilution (CLSI), clinical isolates
# Procedure, shortened: (§1)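 Following the American Clinical and Laboratory Standards Institute procedure, agar two-fold dilution served to determine minimum inhibitory concentrations.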
# [3] = system: methicillin-resistant Staphylococcus epidermidis (MRSE); assay: as above
# Procedure, shortened: as §1
# [4] = system: methicillin-sensitive Staphylococcus epidermidis (MSSE); assay: as above
# Procedure, shortened: as §1
# [5] = system: methicillin-resistant Staphylococcus aureus (MRSA); assay: as above
# Procedure, shortened: as §1
# [6] = system: Enterococcus faecalis (EFA); assay: as above
# Procedure, shortened: as §1
# [7] = system: Moraxella catarrhalis (BCA); assay: as above; conditions: for MIC: Moraxella catarrhalis
# Procedure, shortened: as §1
# [8] = system: Streptococcus pneoumoniae (SPN); assay: as above
# Procedure, shortened: as §1
# [9] = system: methicillin-sensitive Staphylococcus aureus (MSSA); assay: as above
# Procedure, shortened: as §1
# [10] = system: Enterococcus faecium (EFM); assay: as above
# Procedure, shortened: as §1
# [11] = system: MGC-803 gastric cancer cell line; assay: CCK-8 proliferation inhibition; conditions: Homo sapiens, MGC-803, 72 h, concentration of 30 μM
# Source text: (§2) 2. The present invention adopts the CCK-8 method to determine the proliferation inhibition effect of the spiro three-membered ring, spiro five-membered ring peptide deformylase inhibitor as described in Examples 1-80 against colorectal cancer cells, lung cancer cells, gastric cancer cells, liver cancer cells, and the like. […] The compound having the best activity synthesized in Example 64 was further tested for its inhibitory activity against other tumor cells including T cell leukemia, acute myeloid leukemia, cervical cancer, breast cancer, prostate cancer and osteosarcoma, and the like (see Table 7).
# (§3) (1) HCT-116 colorectal cancer cell line, A549 lung cancer cell line, MGC-803 gastric cancer cell line, BEL-7402 liver cancer cell line, Jurkat T cell leukemia cell line, HL60 acute myeloid leukemia cell line, Hela cervical cancer cell line, MCF-7 breast cancer cell line, PC3 prostate cancer cell line and SAOS-2 osteosarcoma cell line were made into single cell suspension, 180 μL of which was inoculated into 96-well culture plate, which was cultured overnight in CO2 incubator (37° C., 5% CO2, 95% air).
# (§4) (2) Each of the spiro three-membered ring, spiro five membered ring peptide deformylase inhibitors was dissolved in DMSO, and was further formulated into drug solution with required different final concentration using corresponding cell culture medium. The drug solutions were added to the above cells respectively (20 μL/well), with the control group added with 1‰ DMSO, and cultured in a CO2 incubator for 72 hours.
# (§5) (3) After incubation for 72 hours, the culture solution was decanted, and 100 μL of 1:10 diluted CCK-8 solution was added.
# (§6) Wherein, in step (1), the concentration of the single cell suspension was 2000 cells/well.
# (§7) Wherein, in step (2), HCT-116 cells were cultured in McCoy's 5A medium (containing 10% newborn bovine serum, 1% double antibody); A549 and PC3 cells were cultured in F12 medium (containing 10% newborn bovine serum, 1% double antibody); MGC-803, BEL-7402, SAOS-2, Jurkat and HL60 cells were cultured in 1640 medium (containing 10% newborn bovine serum, 1% double antibody); and MCF-7 and Hela cells were cultured in DMEM high glucose medium (containing 10% newborn bovine serum, 1% double antibody).
# [12] = system: BEL-7402 liver cancer cell line; assay: CCK-8 proliferation inhibition; conditions: concentration of 30 μM
# Source text: as §2, §3, §4, §5, §6, §7
# [13] = system: A549 lung cancer cell line; assay: CCK-8 proliferation inhibition; conditions: Homo sapiens, A549, 72 h, concentration of 30 μM
# Source text: as §2, §3, §4, §5, §6, §7
compound,measurement,setting,value
CCCC[C@H](CN(O)C=O)C(=O)N1CC2(CC2)C[C@H]1C(=O)Nc1nccs1 [Example 22],inhibition at 30 µM,"[1]; Homo sapiens, HCT-116, 72 h, read-out: HCT116 inhibition rate/%",> 50%
same,HCT116 inhibition rate/%,[1]; 30 µM,52%
same,MIC (anti-bacterial activity),[2]; strain ECO+ 15-1,16 µg/mL
same,MIC (anti-bacterial activity),[2]; strain ECO+ 15-2,64 µg/mL
same,MIC (anti-bacterial activity),[2]; strain ECO+ 15-3,32 µg/mL
same,MIC (anti-bacterial activity),[2]; strain ECO+ 15-4,32 µg/mL
same,MIC (anti-bacterial activity),[2]; strain ECO− 15-1,32 µg/mL
same,MIC (anti-bacterial activity),[2]; strain ECO− 15-2,64 µg/mL
same,MIC (anti-bacterial activity),[2]; strain ECO− 15-3,64 µg/mL
same,MIC (anti-bacterial activity),[2]; strain ECO− 15-4,64 µg/mL
same,MIC (anti-bacterial activity),[3]; strain MRSE 15-1,0.03 µg/mL
same,MIC (anti-bacterial activity),[3]; strain MRSE 15-2,0.06 µg/mL
same,MIC (anti-bacterial activity),[3]; strain MRSE 15-3,0.125 µg/mL
same,MIC (anti-bacterial activity),[3]; strain MRSE 15-7,0.125 µg/mL
same,MIC (anti-bacterial activity),[4]; strain MSSE 15-3,0.06 µg/mL
same,MIC (anti-bacterial activity),[4]; strain MSSE 15-4,0.03 µg/mL
same,MIC (anti-bacterial activity),[4]; strain MSSE 15-5,0.03 µg/mL
same,MIC (anti-bacterial activity),[4]; strain MSSE 15-6,0.03 µg/mL
same,MIC (anti-bacterial activity),[5]; strain MRSA 15-1,0.06 µg/mL
same,MIC (anti-bacterial activity),[5]; strain MRSA 15-2,0.25 µg/mL
same,MIC (anti-bacterial activity),[5]; strain MRSA 15-3,0.06 µg/mL
same,MIC (anti-bacterial activity),[5]; strain MRSA 15-4,0.25 µg/mL
same,MIC (anti-bacterial activity),[6]; strain EFA 15-1,2 µg/mL
same,MIC (anti-bacterial activity),[6]; strain EFA 15-2,2 µg/mL
same,MIC (anti-bacterial activity),[6]; strain EFA 15-3,1 µg/mL
same,MIC (anti-bacterial activity),[6]; strain EFA 15-4,2 µg/mL
same,MIC (anti-bacterial activity),[6]; strain EFA 15-5,2 µg/mL
same,MIC (anti-bacterial activity),[6]; strain EFA 15-6,2 µg/mL
same,MIC (anti-bacterial activity),[6]; strain EFA 15-9,2 µg/mL
same,MIC,"[7]; 7 clinical isolates, range over strains, read-out: Moraxella catarrhalis (n = 7) MIC",0.06 to 0.5 µg/mL
same,MIC,"[7]; lowest MIC reached, read-out: minimum inhibitory concentration against Moraxella catarrhalis, as low as",≥ 0.06 µg/mL
same,MIC (anti-bacterial activity),[7]; strain BCA 14-1,0.5 µg/mL
same,MIC (anti-bacterial activity),[7]; strain BCA 14-4,0.25 µg/mL
same,MIC (anti-bacterial activity),[7]; strain BCA 14-5,0.06 µg/mL
same,MIC (anti-bacterial activity),[7]; strain BCA 14-6,0.06 µg/mL
same,MIC (anti-bacterial activity),[7]; strain BCA 14-7,0.125 µg/mL
same,MIC (anti-bacterial activity),[7]; strain BCA 14-8,0.5 µg/mL
same,MIC (anti-bacterial activity),[7]; strain BCA 14-10,0.125 µg/mL
same,MIC (anti-bacterial activity),[8]; strain SPN 16-2,2 µg/mL
same,MIC (anti-bacterial activity),[8]; strain SPN 16-4,0.5 µg/mL
same,MIC (anti-bacterial activity),[9]; strain MSSA 15-3,0.06 µg/mL
same,MIC (anti-bacterial activity),[9]; strain MSSA 15-4,0.06 µg/mL
same,MIC (anti-bacterial activity),[9]; strain MSSA 15-5,0.03 µg/mL
same,MIC (anti-bacterial activity),[9]; strain MSSA 15-6,0.06 µg/mL
same,MIC (anti-bacterial activity),[10]; strain EFM 15-1,0.5 µg/mL
same,MIC (anti-bacterial activity),[10]; strain EFM 15-2,2 µg/mL
same,MIC (anti-bacterial activity),[10]; strain EFM 15-3,0.25 µg/mL
same,MIC (anti-bacterial activity),[10]; strain EFM 15-4,0.5 µg/mL
same,MIC (anti-bacterial activity),[10]; strain EFM 15-5,0.25 µg/mL
same,MIC (anti-bacterial activity),[10]; strain EFM 15-6,0.5 µg/mL
same,inhibition at 30 µM,[11],14%
same,inhibition at 30 µM,"[12]; Homo sapiens, Bel-7402, 72 h",> 50%
same,"Inhibition of proliferation, Liver cancer BEL-7402","[12]; 72 hours, 30 µM",51%
same,inhibition at 30 µM,[13],21%
